{
  "source": "ChEMBL document CHEMBL3832045",
  "about": "“DailyMed|setid=14ed9edd-bfd3-4fa4-9293-66666f779ba3 | TRIAMCINOLONE ACETONIDE - triamcinolone acetonide spray, metered|Physicians Total Care, Inc”",
  "format_in_all_cases": "ADME, organism-based",
  "key": {"Homo sapiens": {"system": "Homo sapiens", "test": "(§1) Pharmacokinetic parameters for triamcinolone acetonide evaluated after intranasal administration of triamcinolone acetonide nasal spray.", "design": "dose 220 mcg, route intranasal, dose 110 to 440", "settings": "in vivo, inhaled_or_intranasal, dose 220 mcg, dosed compound id 47, dosed compound name TRIAMCINOLONE ACETONIDE, regimen Single dose, route intranasal, tissue Plasma"}, "[1]": {"test": "as §1", "design": "dose 220 mcg, route intranasal, dose 110 to 440", "settings": "human, in vivo, inhaled or intranasal, dosed compound id 47, dosed compound name TRIAMCINOLONE ACETONIDE, regimen Single dose, tissue Plasma"}, "[2]": {"test": "Evaluation of pharmacokinetic parameters for triamcinolone acetonide following intravenous dosing of triamcinolone acetonide phosphate ester in adults.", "settings": "human, in vivo, dosed compound id 470, dosed compound name TRIAMCINOLONE ACETONIDE PHOSPHATE ESTER, tissue Plasma"}},
  "data": [
    {"smiles": "CC1(C)O[C@@H]2C[C@H]3[C@@H]4CCC5=CC(=O)C=C[C@]5(C)[C@@]4(F)[C@@H](O)C[C@]3(C)[C@]2(C(=O)CO)O1", "note": "[TRIAMCINOLONE ACETONIDE]", "values": [
      {"measurement": "t1/2", "setting": "Homo sapiens", "value": 3.1, "unit": "h"},
      {"measurement": "Tmax", "setting": "[1]; dose 220 mcg, route intranasal", "value": 1.5, "unit": "h"},
      {"measurement": "half-life", "setting": "[1]; dose 220 mcg, route intranasal", "value": 3.1, "unit": "h"},
      {"measurement": "Cmax", "setting": "[1]", "value": 0.5, "unit": "ng/mL"},
      {"measurement": "AUC", "setting": "[1]; read-out: AUC(0 to inf)", "value": "1.4 to 4.7", "unit": "ng·h/mL"},
      {"measurement": "Vd", "setting": "[2]", "value": 99.5, "unit": "L"},
      {"measurement": "clearance", "setting": "[2]", "value": 753, "unit": "mL/min"},
      {"measurement": "half-life", "setting": "[2]", "value": 1.47, "unit": "h"}
    ]}
  ]
}
